Reference: patent publication US4965280A, “Antifungal carbinols” (E. I. Du Pont de Nemours and Company, priority 1989, dated 1990)
Converted amounts (≈) assume the structure as drawn. Like-named read-outs stand apart in the source and are kept apart here.

Legend:
[1] = test system: Candida albicans ATCC 11651; experiment: In vivo systemic Candida infection in mice, primary assay; design: species or system Candida albicans; CF-1 female mice; settings: Candida albicans, 150 mg/kg per day, read-out: % Survival
In short: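 CF-1 female mice (20 g, 10 per group) were infected IV with 0.2 ml of 1×10^7/ml C. albicans ATCC 11651, then given test compound subcutaneously at 50 or 150 mg/kg/day at 1 and 6 h post-infection and once daily for three more days. Survival was followed for 21 days against infected untreated mice; ≥70% protection at 14 days was scored active.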

Venturia inaequalis = experiment: Example A apple scab; format: in vivo; settings: 100 PPM, read-out: disease control rating, Ex. A
In short: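 Spray application to run-off on apple seedlings; compound at 100 or 20 ppm in water with 250 ppm TREM 014 (polyhydric alcohol esters) and 6% acetone of final volume.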

[2] = test system: Cercosporidium personatum; experiment: Example B Peanut Late Leafspot; format: in vivo; settings: Nothopassalora personata; 100 PPM; read-out: disease control rating, Ex. B
In short: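 Spray suspensions at 100 or 20 ppm, prepared from acetone solutions (acetone 6% of final volume) in water carrying 250 ppm of a polyhydric alcohol ester surfactant, were applied to peanut seedlings until run-off.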

Botrytis cinerea = experiment: Example C bean grey mold; format: in vivo; settings: Botrytis cinerea, 24 h, 100 PPM; read-out: disease control rating, Ex. C
In short: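 Spray rates: 100 and 20 ppm. Vehicle: purified water with 6% acetone by final volume plus 250 ppm TREM 014 (polyhydric alcohol esters). Host plants, broad bean seedlings, were wetted until run-off.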

[3] = test system: Erysiphe graminis f. sp. tritici; experiment: Example D wheat powdery mildew; format: in vivo; settings: Blumeria graminis, 144 h; 100 PPM; read-out: disease control rating, Ex. D
In short: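 Seedling wheat was treated by spraying to run-off; formulation used acetone as co-solvent (6% final) and TREM 014 surfactant at 250 ppm, with compound at 100 or 20 ppm.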

Pyricularia oryzae = experiment: whole plant or invertebrate; format: in vivo; settings: Pyricularia oryzae, 120 h, read-out: disease control rating, Ex. E, 100 PPM
Rhizoctonia solani [4] = experiment: Example F rice sheath blight; format: in vivo; settings: Rhizoctonia solani, 144 h, 100 PPM; read-out: disease control rating, Ex. F
In short: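 Foliar run-off spray, rice seedlings: compound at 100 or 20 ppm in aqueous 250 ppm polyhydric alcohol ester surfactant, acetone 6% v/v final.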

Puccinia recondita = experiment: Example G wheat leaf rust; format: in vivo; settings: 100 PPM, read-out: disease control rating, Ex. G
Phytophthora infestans = experiment: whole plant or invertebrate; format: in vivo; settings: Phytophthora infestans, in Solanum lycopersicum, read-out: disease control rating, Ex. H, 100 PPM
Plasmorpara viticola = experiment: Example I grape downy mildew; format: in vivo; settings: read-out: disease control rating, Ex. I
In short: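 Compounds were dissolved in acetone (6% of final volume) and suspended at 100 or 20 ppm in purified water with 250 ppm TREM 014 surfactant (polyhydric alcohol esters). Grape seedlings were sprayed with this suspension to run-off.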

Pythium aphanadermatum = experiment: Example J cucumber damping off; format: in vivo; settings: Pythium, 336 h; 5 kg/ha; read-out: disease control rating, Ex. J
In short: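 Seeds and soil were inoculated with a mix of sand, cereal and Pythium aphanadermatum mycelium, the fungus responsible for cucumber damping off. They were kept in a growth chamber at 30° C. for 14 days, and disease was then rated to assess control.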

Rhizoctonia solani [5] = experiment: Example K cotton blight; format: in vivo; settings: 336 h, 5 kg/ha, read-out: disease control rating, Ex. K
Description: […] Seeds and soil were then inoculated with a mixture of sand, cereal and mycelium of the fungus Rhizoctonia solani, causal agent of cotton blight, and incubated in a growth chamber at 30° C. for 14 days. Disease ratings were then made.

Sclerotium rolfsii = experiment: Example M southern blight; format: in vivo; settings: Agroathelia rolfsii, 336 h; 5 kg/ha; read-out: disease control rating, Ex. M
Description: […] Seeds and soil were then inoculated with a mixture of sand, cereal and mycelium of the fungus Sclerotium rolfsii, causal agent of sourthern blight, and incubated in a growth chamber at 30° C. for 14 days. Disease ratings were then made.

[6] = test system: Candida albicans ATCC 11651; experiment: In vitro antifungal MIC, microtiter broth dilution; settings: Candida albicans, ATCC11651, 24 h, read-out: MIC values, C. albicans, 30°, 24 hours
[7] = test system: Aspergillus fumigatus ATCC 28214; experiment: In vitro antifungal MIC, microtiter broth dilution; settings: Aspergillus fumigatus, ATCC28214, 24 h, read-out: MIC values, A. fumigatus, 30°, 24 hours
[8] = test system: Fusarium oxysporum f. sp. cucumerinum; experiment: Example L cucumber wilt; format: in vivo; settings: 336 h, 5 kg/ha, read-out: disease control rating, Ex. L
Description: […] Seeds and soil were then inoculated with a mixture of sand, cereal and mycelium of the fungus Fusarium oxysporum f. sp. cucumerinum, causal agent of cucumber wilt, and incubated in a growth chamber at 30° C. for 14 days. Disease ratings were then made.

Row | SMILES | responders at 150 mg/kg ([1]; ATCC11651, 168 h, day 7) | responders at 150 mg/kg ([1]; ATCC11651, 336 h, day 14) | responders at 150 mg/kg ([1]; ATCC11651, 504 h, day 21) | pest or weed control at 100 ppm (Venturia inaequalis) | pest or weed control at 100 ppm [2] | pest or weed control at 100 ppm (Botrytis cinerea) | pest or weed control at 100 ppm [3] | pest or weed control at 100 ppm (Pyricularia oryzae) | pest or weed control at 100 ppm (Rhizoctonia solani [4]) | pest or weed control at 100 ppm (Puccinia recondita) | pest or weed control at 100 ppm (Phytophthora infestans) | pest or weed control at 100 ppm (Plasmorpara viticola) | pest or weed control at 5000 g/ha (Pythium aphanadermatum) | pest or weed control at 5000 g/ha (Rhizoctonia solani [5]) | pest or weed control at 5000 g/ha (Sclerotium rolfsii) | MIC [6] | MIC [7] | pest or weed control at 5000 g/ha [8]
1 | C=C(c1ccc(Cl)cc1Cl)C(O)(Cn1cncn1)c1ccc(Cl)cc1 (stereo not shown) [Example 101] | 100% | 90% | 60% | 100% | 100% | 94% | 83% | 0% | 80% | 100% | 0% | 100% | 0% | 0% | 0% | 0.03 µg/mL (≈ 0.076 µM) | 12.5 µg/mL (≈ 31.7 µM) | –
2 | C=C(c1ccccc1Cl)C(O)(Cn1cncn1)c1ccccc1F (stereo not shown) [Example 620] | 100% | 100% | 90% | 100% | 100% | 96% | 98% | 51% | 100% | 100% | 0% | 0% | 0% | 0% | 0% | 0.03 µg/mL (≈ 0.0873 µM) | 0.05 µg/mL (≈ 0.145 µM) | –
3 | C=C(c1ccccc1Cl)C(O)(Cn1cncn1)c1ccccc1Cl (stereo not shown) [Example 622] | 100% | 100% | 100% | 100% | 100% | 84% | 99% | 0% | 100% | 100% | 0% | 26% | 0% | 0% | 0% | 0.03 µg/mL (≈ 0.0833 µM) | 0.1 µg/mL (≈ 0.278 µM) | –
4 | C=C(c1ccc(F)cc1)C(O)(Cn1ncnc1I)c1ccccc1F (stereo not shown) [Example 1377] | – | – | – | 100% | 100% | 96% | 92% | 58% | 100% | 100% | 0% | 44% | 0% | – | – | 1.6 µg/mL (≈ 3.53 µM) | 100 µg/mL (≈ 221 µM) | 0%
5 | OC(Cn1cncn1)(c1ccc(F)cc1)C1(c2ccccc2)CO1 (stereo not shown) [Example 1527] | 100% | 70% | 20% | 0% | 100% | 93% | 100% | – | 35% | 100% | 0% | 0% | 0% | – | – | 0.4 µg/mL (≈ 1.23 µM) | 6.3 µg/mL (≈ 19.4 µM) | 0%
